Experimental findings from paper PMC6480711, “The Molecular and Structural Basis of O-methylation Reaction in Coumarin Biosynthesis in Peucedanum praeruptorum Dunn” (International Journal of Molecular Sciences, 2019) are described below.

One experiment deals with T1, PpBMT (Kitagawia praeruptora, UniProt A0A166U5H3).
T1 construct: gene BMT; recombinant, construct as in the authors' previous report
Description: HPLC product analysis. The format is biochemical. Particulars: co-substrate SAM; product bergapten.

The next experiment concerns the target T2, COMT-S (Kitagawia praeruptora, UniProt A0A4P8DY91).
T2 construct: full-length CDS in pET28a, 6xHis tag, E. coli BL21 (DE3), Superdex 200
T2 sequence (A0A4P8DY91 1-364): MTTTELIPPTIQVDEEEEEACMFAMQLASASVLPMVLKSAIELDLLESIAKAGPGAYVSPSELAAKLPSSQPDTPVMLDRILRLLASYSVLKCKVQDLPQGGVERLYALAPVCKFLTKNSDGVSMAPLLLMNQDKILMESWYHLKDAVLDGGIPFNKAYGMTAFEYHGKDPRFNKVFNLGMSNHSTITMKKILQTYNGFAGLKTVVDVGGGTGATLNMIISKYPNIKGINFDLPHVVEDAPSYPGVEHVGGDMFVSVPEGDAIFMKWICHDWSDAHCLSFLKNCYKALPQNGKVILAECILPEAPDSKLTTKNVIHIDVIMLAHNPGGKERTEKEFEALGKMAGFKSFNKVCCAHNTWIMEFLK
Description: isothermal titration calorimetry. The format is binding. Particulars: 25 mM Tris-HCl pH 8.0, 150 mM NaCl, 25 °C; cofactor analogue (product of SAM). For orientation: Isothermal titration calorimetry measures the heat released or taken up as one component is titrated into another.

T1 sequence (A0A166U5H3 whole entry): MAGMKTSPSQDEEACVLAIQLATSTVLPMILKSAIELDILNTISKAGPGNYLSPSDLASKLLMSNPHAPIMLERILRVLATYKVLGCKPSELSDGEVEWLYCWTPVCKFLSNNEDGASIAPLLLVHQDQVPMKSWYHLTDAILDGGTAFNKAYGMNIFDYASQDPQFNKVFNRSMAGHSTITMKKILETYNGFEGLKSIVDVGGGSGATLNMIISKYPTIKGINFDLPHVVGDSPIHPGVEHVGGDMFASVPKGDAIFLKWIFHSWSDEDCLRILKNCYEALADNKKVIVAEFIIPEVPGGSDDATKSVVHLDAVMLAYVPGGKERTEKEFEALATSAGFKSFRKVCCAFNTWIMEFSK

On to `O=c1ccc2c(O)c3ccoc3cc2o1` [bergaptol], for which, on PpBMT, the HPLC product analysis result is “COMT-S could accept esculetin, bergaptol, and xanthotoxl as substrates, while BMT could only catalyze bergaptol”. For `Nc1ncnc2c1ncn2[C@@H]1O[C@H](CSCC[C@H](N)C(=O)O)[C@@H](O)[C@H]1O` [SAH], on COMT-S, the equilibrium dissociation constant result is recorded as “The equilibrium dissociation constants of PpBMT/COMT–SAH interactions were determined by an MicroCal Auto-ITC200 calorimeter”.
